We go through one molecule from US20210316010A1, “DRUG DELIVERY PRODUCT, COMPOSITION AND SYSTEM” (MASTER DYNAMIC LIMITED, priority 2018, published 2021).

The test system of test [1] is SAS MCTS. As to the kind of experiment: Penetration and distribution in SAS multicellular tumor spheroids (MCTS), confocal microscopy. The class given is cell-based, Human. The conditions noted are these: after 1 day of incubation. The procedure: In order to investigate the penetration of DOX with different formulations (ND-DOX and ND-HSA-DOX) in tissue model in vitro, SAS MCTS were used to incubate with ND, free DOX, ND-DOX and ND-HSA-DOX.
The ND and DOX with different formulations complex uptake and distribution in SAS MCTS model was monitored by using CLSM.
The cell nuclei were stained with Hoechst […] which emits blue fluorescence (440 nm-484 nm), cell membrane were dyed with 3,3′-dipentyloxacarbocyanine iodide (DIOC'5), and the signal was collected in the 520-555 nm range, shown in red color.
In order to promote the multicellular tumor spheroids (MCTS) formation, SAS cells were seeded in Gravity TRAP ULA Plate, by Insphero, at a density of 5,000 cells per well and cultured at 37° C. with 5% CO2 for 3 days before drug treatment.
For the distributions of ND, DOX, ND-DOX and ND-HSA-DOX within MCTS were determined by confocal laser microscopy.
SAS MCTS were treated with ND, DOX, ND-DOX and ND-HSA-DOX for 4 days. Each day, one of treatment MCTS was harvested and fixed with 3.7% formaldehyde for 24 h. Washing the MCTS 3 time with PBS, and MCTS was incubated with DIOC'5 for 24 h. After washing 3 times, Hoechst 33342 was incubated with MCTS for 24 h. Then MCTS was observed by confocal microscopy.

The subject of test [2] is HeLa cells. The conditions noted are these: treatment for 5 h; cited from earlier work.
The subject of test [3] is SAS cells. As to the kind of experiment: Monolayer 2D SAS cellular uptake, confocal laser scanning microscopy. The test is classed as cell-based, Human. The conditions noted are these: 4 hrs incubation, DOX 20 μg/ml. An excerpt:
Intracellular trafficking and distribution of DOX within SAS cells were used to further investigate the outcomes, by using confocal laser scanning microscopy (CLSM), as shown in the images of FIGS. 21 and 21I.
The 50 nm ND fluorescence was excited with 488 nm, and collected in range 500-515 nm. The ND's fluorescence in this range corresponds predominantly to emission from diamond H^3 defect centers with emission peak near 505 nm, shown as green colour 206. The bright fields as evidenced, were also provided to reveal the morphologies of SAS cells.
Human Oral Squamous Carcinoma cell (SAS) cells were cultured in DMEM medium (Gibco, Invitrogen, UK). The medium was supplemented with 2 mM L-glutamine (Invitrogen, USA), 1.5 g/L sodium bicarbonate (Sigma, UK), 10% fetal bovine serum (Gibco/Life Technologies, Carlsbad, Calif., USA).
Cells were maintained under standard cell culture conditions in an incubator (Galaxy 170S, Eppendorf, USA) containing 95% air and 5% CO2 at 37° C. humid environment.
Culture medium was replaced with a fresh medium every 48 or 72 hr. […]
Unreacted samples were removed by washing. […] The emission of DOX was absorbed at 570-590 nm and ND was detected at 500-515 nm.

Turning to `COc1cccc2c1C(=O)c1c(O)c3c(c(O)c1C2=O)C[C@@](O)(C(=O)CO)C[C@@H]3O[C@H]1C[C@H](N)[C@H](O)[C@H](C)O1.Cl` [DOX, doxorubicin hydrochloride], the “penetration in SAS MCTS” value in test [1] was “limited to the outer cell layers”. The “intracellular location of DOX” value in test [2] is recorded as “located in nuclear of HeLa cells”. Further, the “intracellular distribution of DOX” value in test [3] is reported as “distributed on cytoplasm”.
